Broadly, the IC50 is the concentration that inhibits the measured activity by half. Usually viability, T/C stands for the result in the treated group divided by that in the control group, in per cent.

The subject of the assay is 616215-338-R-J1-PDC spheroid with HUVEC/MSC, viability. Briefly: Anticancer human tumor 616215-338-R-J1-PDC patient-derived colon adenocarcinoma cell line growth inhibition [TAK]. As to conditions: for viability, T/C: stronger effect = lower value. The text has this: Combinatorial screen of targeted agents with TAK-243 and ipatasertib in multi-cell type tumor spheroids
A high-throughput screen of multi-cell type tumor spheroids was designed to identify active combinations of targeted small molecules and TAK-243 or ipatasertib. Complex spheroids include a stromal component modeled by human endothelial cells (HUVEC) and fibroblasts modeled by human mesenchymal stem cells (MSCs). The concentration ranges selected for each drug and investigational agent were based upon clinically achievable concentrations if the clinical Cmax of the agent was known.
Compounds. The drugs and investigational agents: TAK-243 (785004), ipatasertib (767898), everolimus (733504), selumetinib (741078), bortezomib (756655), trametinib (758246), ixazomib (758254), vemurafenib (761431), dabrafenib (764134), sapanisertib (764658), alpelisib (765974), and copanlisib (816437), were obtained from the National Cancer Institute (NCI) Developmental Therapeutics Program Chemical Repository. The FDA-approved anticancer drug set is available from the NCI Developmental Therapeutics Program. […] The stock solutions were prepared in dimethyl sulfoxide (DMSO, Sigma-Aldrich, St. Louis, MO, cat. D2650) at 800-fold the tested concentration and stored at -70 degrees C prior to their use. All drugs and investigational agents were tested over a range starting from a high concentration at or near the clinical Cmax and decreasing in half-log increments. If the clinical Cmax for an agent had not been determined, the highest concentration tested was 10 microM.
NCI60 Cell Culture. NCI60 cell lines were obtained from the NCI Developmental Therapeutics Program Tumor Repository. For each lot of cells, the Repository performed Applied Biosystems AmpFLSTR Identifiler testing with PCR amplification to confirm consistency with the published Identifier STR profile for each cell line. Cells were kept in continuous culture for no more than 20 passages. The optimal seeding densities for each of the cell lines at each time point assessed were determined prior to performing the concentration response studies. Briefly, the NCI60 human tumor lines were grown as monolayers in RPMI 1640 medium supplemented with 10% FBS and 2 mmol/L L-glutamine.
An additional 2 lines were from the NCI60 cell line panel including melanomas, MALME-3M and SK-MEL-2. Pooled donor human umbilical vein endothelial cells (HUVEC, Lonza, cat. CC-2519) and human mesenchymal stem cells (hMSC, Lonza, cat. PT-2501) were purchased from Lonza (Walkersville, MD).
PDMR cell lines were grown in complete medium (DC medium): Dulbecco's modified Eagle's medium (DMEM)/F12 supplemented with 5% fetal bovine serum (FBS), 2 mM L-glutamine, 100 U/mL penicillin and 100 µg/ml streptomycin, 0.4 µg/ml hydrocortisone, 10 ng/ml epidermal growth factor (EGF) recombinant human protein, 24 µg/mL adenine, and 0.1 mg/mL primocin. During culture from frozen stock vials, PDMR cells were cultured in the same medium containing 10 µM Y-27632 (see Table 3). The PDCs were cultured in complete DMEM/F12 media without 10 microM Y-27632 dihydrochloride for at least two passages prior to the screen. The pooled donor HUVEC and hMSC were cultured in endothelial cell growth medium 2 (PromoCell, Heidelberg, Germany, cat. C-22011) and mesenchymal stem cell growth medium 2 (PromoCell, cat. C-28009), respectively. For all experiments, HUVEC and hMSC were used at passages </=5.
For the pre-screen, cell seeding densities were determined from a titration spanning the range from 5,000 to 313 cells per well. The mct-spheroids including 60% malignant cells, 25% HUVEC and 15% MSC dispensed as a mixture into U-bottom Ultra-Low Attachment 384-well plates (Corning, NY)
High-throughput Drug Combination Screening.
Prior to their inoculation into 384-well plates, malignant cells, HUVEC, and hMSC were removed from T flasks using TrypLE express (Thermo Fisher Scientific, cat. 12605036) and harvested by centrifugation for 5 min at 233 x g. […]

The mark [1] stands for this setting: curve of first compound, second compound 0.3 µM.
[2] abbreviates: curve of first compound, second compound 0.949 µM.
[3] abbreviates: curve of first compound, second compound 3 µM.
The mark [4] stands for this setting: curve of first compound, second compound 9.49 µM.
Where [5] appears, read: curve of first compound, second compound 30 µM.

Values joined by “and” are separate entries in the source; they are usually repeats but may differ in a detail not shown here. Identical values can stand only once.
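Note: spheroids exposed to drugs for 7 days before readout.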

In the case of `CC(C)CC(NC(=O)C(Cc1ccccc1)NC(=O)c1cnccn1)B(O)O` (centres undefined) + CC(C)NCC(C(=O)N1CCN(c2ncnc3c2C(C)CC3O)CC1)c1ccc(Cl)cc1, the IC50 reads like this: under setting [1], over 10 nM; under setting [2], over 10 nM; under setting [3], 5.34 nM; under setting [4], under 0.0316 nM; under setting [5], under 0.0316 nM. Besides, the viability, T/C (second compound 0.3 µM, first compound 31.6 pM) is 90.8%; the viability, T/C (second compound 0.3 µM, first compound 0.0001 µM) is 99.2%; the viability, T/C (second compound 0.3 µM, first compound 0.000316 µM) is 90.8%; the viability, T/C (second compound 0.3 µM, first compound 0.001 µM) is 95.1%; the viability, T/C (second compound 0.3 µM, first compound 0.00316 µM) is 96.6%; the viability, T/C (second compound 0.3 µM, first compound 0.01 µM) was 112%. Further, the viability, T/C was 114% (second compound 0.949 µM, first compound 31.6 pM); 109% (second compound 0.949 µM, first compound 0.0001 µM); 121% (second compound 0.949 µM, first compound 0.000316 µM); 112% (second compound 0.949 µM, first compound 0.001 µM); 111% (second compound 0.949 µM, first compound 0.00316 µM); 80.3% (second compound 0.949 µM, first compound 0.01 µM). Further, the viability, T/C runs as follows: (second compound 3 µM, first compound 31.6 pM) 81.1%; (second compound 3 µM, first compound 0.0001 µM) 88.7%; (second compound 3 µM, first compound 0.000316 µM) 88.7%; (second compound 3 µM, first compound 0.001 µM) 80.9%; (second compound 3 µM, first compound 0.00316 µM) 84.8%; (second compound 3 µM, first compound 0.01 µM) 8.39%. In addition, the viability, T/C is, setting by setting: (second compound 9.49 µM, first compound 31.6 pM) 33.9%; (second compound 9.49 µM, first compound 0.0001 µM) 35.2%; (second compound 9.49 µM, first compound 0.000316 µM) 26.4%; (second compound 9.49 µM, first compound 0.001 µM) 29.8%; (second compound 9.49 µM, first compound 0.00316 µM) 32.2%; (second compound 9.49 µM, first compound 0.01 µM) 0.75%. The viability, T/C runs as follows: (second compound 30 µM, first compound 31.6 pM) 15.3%; (second compound 30 µM, first compound 0.0001 µM) 15.2%; (second compound 30 µM, first compound 0.000316 µM) 14.1%; (second compound 30 µM, first compound 0.001 µM) 13.2%; (second compound 30 µM, first compound 0.00316 µM) 15.1%; (second compound 30 µM, first compound 0.01 µM) 0.24%.
Take `COC1CC2CCC(C)C(O)(O2)C(=O)C(=O)N2CCCCC2C(=O)OC(C(C)CC2CCC(OCCO)C(OC)C2)CC(=O)C(C)C=C(C)C(O)C(OC)C(=O)C(C)CC(C)C=CC=CC=C1C` (centres undefined): the viability, T/C is 98.5% and 109% (compound 0.000316 µM); 93.9% and 116% (compound 0.001 µM); 96.7% and 111% (compound 0.00316 µM); 107% and 112% (compound 0.01 µM); 110% and 117% (compound 0.0316 µM); 110% and 83% (compound 0.1 µM). Also, the IC50 (curve of compound) was over 100 nM.
As to `CC(=O)Nc1cccc(-n2c(=O)n(C3CC3)c(=O)c3c(Nc4ccc(I)cc4F)n(C)c(=O)c(C)c32)c1`, the viability, T/C (compound 94.9 pM) is 97% and 104%; the viability, T/C (compound 0.0003 µM) is 110% and 106%; the viability, T/C (compound 0.000949 µM) was 134% and 90.8%; the viability, T/C (compound 0.003 µM) was 90.5% and 64%; the viability, T/C (compound 0.00949 µM) is 33.2% and 29.1%; the viability, T/C (compound 0.03 µM) was 5.55% and 17.7%. For the same compound, the IC50 (curve of compound) was 6.78 nM and 4.71 nM.
As for `CC(=O)Nc1cccc(-n2c(=O)n(C3CC3)c(=O)c3c(Nc4ccc(I)cc4F)n(C)c(=O)c(C)c32)c1` + CC(C)NCC(C(=O)N1CCN(c2ncnc3c2C(C)CC3O)CC1)c1ccc(Cl)cc1, the IC50 reads like this: under setting [1], 4.61 nM; under setting [2], 1.65 nM; under setting [3], 0.213 nM; under setting [4], under 0.0949 nM; under setting [5], under 0.0949 nM. The viability, T/C (second compound 0.3 µM, first compound 94.9 pM) was 131%; the viability, T/C (second compound 0.3 µM, first compound 0.0003 µM) was 132%; the viability, T/C (second compound 0.3 µM, first compound 0.000949 µM) was 125%; the viability, T/C (second compound 0.3 µM, first compound 0.003 µM) was 69.9%; the viability, T/C (second compound 0.3 µM, first compound 0.00949 µM) is 16.6%; the viability, T/C (second compound 0.3 µM, first compound 0.03 µM) was 3.1%. Moreover, the viability, T/C was 134% (second compound 0.949 µM, first compound 94.9 pM); 130% (second compound 0.949 µM, first compound 0.0003 µM); 69.7% (second compound 0.949 µM, first compound 0.000949 µM); 28.1% (second compound 0.949 µM, first compound 0.003 µM); 9.36% (second compound 0.949 µM, first compound 0.00949 µM); 1.03% (second compound 0.949 µM, first compound 0.03 µM). In addition, the viability, T/C (second compound 3 µM, first compound 94.9 pM) is 57.9%; the viability, T/C (second compound 3 µM, first compound 0.0003 µM) is 47.6%; the viability, T/C (second compound 3 µM, first compound 0.000949 µM) was 25.3%; the viability, T/C (second compound 3 µM, first compound 0.003 µM) was 11.9%; the viability, T/C (second compound 3 µM, first compound 0.00949 µM) is 4.2%; the viability, T/C (second compound 3 µM, first compound 0.03 µM) was 0.83%. In addition, the viability, T/C is, setting by setting: (second compound 9.49 µM, first compound 94.9 pM) 22%; (second compound 9.49 µM, first compound 0.0003 µM) 18.4%; (second compound 9.49 µM, first compound 0.000949 µM) 12.3%; (second compound 9.49 µM, first compound 0.003 µM) 6.63%; (second compound 9.49 µM, first compound 0.00949 µM) 2.23%; (second compound 9.49 µM, first compound 0.03 µM) 1.12%. The viability, T/C is 10.7% (second compound 30 µM, first compound 94.9 pM); 9.94% (second compound 30 µM, first compound 0.0003 µM); 6.33% (second compound 30 µM, first compound 0.000949 µM); 3.43% (second compound 30 µM, first compound 0.003 µM); 1.53% (second compound 30 µM, first compound 0.00949 µM); 1.15% (second compound 30 µM, first compound 0.03 µM).
